Assay results taken from PMC11393453, “Phosphorylation of tau at a single residue inhibits binding to the E3 ubiquitin ligase, CHIP” (Nature Communications, 2024).

Experiments:
CHIP = experiment: NanoBiT live cell PPI assay (CHIP-tau split luciferase); type: cell-based; details: Fig 1B, normalized to FL tau with vehicle, 30nM OA
Procedure: Fig. 1 Phosphorylation of tauC3 inhibits interaction with CHIP. A Cartoon schematic of the live-cell NanoBiT assay for measuring CHIP-tau PPIs (NanoBiT PDB = 7SNX; CHIP PDB = 2C2L). B Results of NanoBiT assays for CHIP interactions with tau proteoforms following treatment with okadaic acid (30 nM, 18 h) or DMSO control. Luminescence normalized to CHIP binding to FL 0N4R tau treated with vehicle (dashed line). Error bars represent standard deviation (SD). Statistical significance was determined by two-way ANOVA with Bonferroni’s post hoc analysis (n = 3 biological replicates). CTRL = mock transfected control. C Tau proteoforms binding to immobilized CHIP measured by ELISA. Assay was performed in technical triplicate and normalized to maximum absorbance at 450 nm. D Dissociation constants derived from (C). Error bars represent SD. E In vitro ubiquitination of tau proteoforms by CHIP. Samples were collected at the denoted timepoints, quenched in SDS-PAGE loading buffer, and analyzed by western blot. Assay was performed once.
Fig. 2 Phosphorylation of tauC3 Ser416 is sufficient to inhibit interaction with CHIP. A Cartoon depicting constructs used for mapping of inhibitory phosphorylation sites by NanoBiT live cell assays. B NanoBiT live cell assay for CHIP interactions with truncated tau constructs following treatment with okadaic acid (30 nM, 18 h) or DMSO control. Data are shown as the difference between okadaic acid treated samples and vehicle control. Error bars represent SD. Statistical significance was determined by two-sided, one-way ANOVA with Tukey’s post hoc analysis (n = 3 biological replicates). C Apparent change in melting temperatures (Tmapp) for CHIP incubated with DMSO control or Hsp70 C-terminal peptides, as determined by DSF. Error bars represent SD. (n = 4 technical replicates). D DSF experiments performed and analyzed as in the previous panel, but with tauC3-derived peptides. (n = 4 technical replicates). E Competition FP experiment showing displacement of fluorescent tracer from the CHIP TPR domain by various 10-mer Hsp70 or tauC3-derived peptides. Experiments were performed in technical quadruplicate. F Inhibition constants derived from (E). Error bars represent SD. G Tau proteoforms binding to immobilized CHIP, as measured by ELISA. Assay was performed in technical triplicate and normalized to maximum absorbance at 450 nm. H Dissociation constants derived from (G). Error bars represent SD.
CHIP-substrate NanoBiT PPI assay was performed as previously described. Briefly, HEK293T cells were seeded in poly-D-lysine coated 96-well plates (Corning, flat bottom, white opaque) in Opti-MEM. Cells were transfected with 50 ng each SmBiT/LgBiT DNA using Lipofectamine 3000 (Thermo Fisher) in Opti-MEM according to the manufacturer’s instructions. Transfections were performed for 24 h, after which the media was replaced with fresh Opti-MEM containing DMSO or 30 nM okadaic acid. Cells were incubated for an additional […] at 37 °C/5% CO2 in a humidified incubator. Following this incubation, 12.5 uL 1X Nano-Glo live cell luciferase reagent (Promega) diluted in LCS buffer (Promega) was added to each well, and samples were incubated for 10 min at room temperature in the dark to allow luminescence levels to stabilize. […] Un-transfected cells were used to obtain background measurements which were subtracted from observed luminescence values.

HEK293 FlpIn T-Rex cells = experiment: Tau protein abundance by western blot (tau:tubulin); type: cell-based; details: Fig 3G; for normalized tau:tubulin ratios: normalized to full-length tau
Procedure: Fig. 3 TauC3 Ser416 phosphorylation regulates CHIP-dependent tau homeostasis. A In vitro ubiquitination of tau proteoforms by CHIP. Samples were collected at the denoted timepoints, quenched in SDS-PAGE loading buffer, and analyzed by western blot. B Quantification of unmodified tau remaining following in vitro ubiquitination of varying tau proteoforms by CHIP. Unmodified tau remaining was analyzed by densitometry, normalized to 0-min time point, and curves were fit using one-phase exponential decay (n = 3 technical replicates). C Cartoon schematic depicting promoter architecture and varying C-terminal sequences for HEK293 FlpIn T-Rex cells expressing doxycycline inducible GFP-tau proteoforms. D Representative fluorescence micrographs for GFP-tau cells. Images show tau species associated with microtubules (green, false color), while nuclei are stained with Hoechst 33342 (blue, false color). Scale bar = 30 µm. Images are representative of three separate acquisitions. E Co-immunoprecipitation assay following IP of varying tau species from cells. Whole cell lysate (input) was used for loading controls, and co-immunoprecipitated CHIP was analyzed by western blot. Experiment was repeated in duplicate. F Representative western blot showing differing abundance of various tau proteoforms in HEK293 FlpIn T-Rex cells. Experiment was repeated in duplicate. G Quantification of tau protein abundance taken from three independent biological experiments. Tau:tubulin ratio was determined by densitometry and normalized to full-length tau. Error bars represent SD. Statistical significance was determined by one-way ANOVA with Tukey’s post hoc analysis. H Quantification of MAPT mRNA from three independent biological experiments. MAPT mRNA was normalized to GAPDH and shown relative to full-length tau. Error bars represent SD. Statistical significance was determined by one-way ANOVA with Tukey’s post hoc analysis.
Construction of the stable dox-inducible HEK 293 eGFP-tau reporter cell lines was performed as described. In brief, parent HEK 293 Flp-In T-REx cells were harvested by trypsinization, resuspended in electroporation buffer containing 5 µg eGFP-tau plasmid DNA and 45 µg pOG44 plasmid DNA. Cells were electroporated using program Q-001 on a Lonza 4D-Nucleofector. Electroporated cells were immediately diluted in 10% FBS-DMEM and cultured for 48 h to recover. Following recovery, cells were selected with 100 µg/mL hygromycin until single colonies arose. Colonies were subsequently picked and screened for dox-inducible expression of eGFP-tau by fluorescence microscopy (Echo Revolve) and western blotting.
Prepared samples were separated on precast 4–20% SDS-PAGE gradient gels (Bio-Rad) for 35 min at 200 V. Proteins were transferred to nitrocellulose membranes using a Trans-Blot Turbo Transfer System (Bio-Rad). Membranes were blocked in Odyssey TBS Blocking Buffer (Licor) for 1 h at room temperature and then incubated in primary antibody in 1X Tris-Buffer saline containing 0.05% Tween-20 (1X TBS-T), plus 5% non-fat dry milk powder, and 0.02% NaN3 overnight at 4 °C with rotation. The following day, membranes were washed 3 times in 1X TBS-T and then incubated in secondary antibody diluted 1:10,000 in Odyssey TBS Antibody Diluent (Licor) for 1 h at room temperature. Following incubation with secondary antibody, membranes were washed 3 times in 1X TBS-T and imaged on an Odyssey Fc Imaging System (Licor). Quantification was performed by densitometry analysis in ImageJ (NIH). Raw images, along with select quantifications, can be found in Fig. S6. […]

Substance: tau: full length (FL) 0N4R splice isoform of tau, unmodified; recombinant or expressed in cells
- fold change of luminescence (CHIP; replicate 1): 1.804
- fold change of luminescence (CHIP; replicate 2): 1.978
- fold change of luminescence (CHIP; replicate 3): 1.758
- normalized tau:tubulin ratios (HEK293 FlpIn T-Rex cells; replicate 1): 107.457
- normalized tau:tubulin ratios (HEK293 FlpIn T-Rex cells; replicate 2): 93.4819
- normalized tau:tubulin ratios (HEK293 FlpIn T-Rex cells; replicate 3): 99.0612
- raw tau:tubulin ratios (HEK293 FlpIn T-Rex cells; replicate 1): 1.039
- raw tau:tubulin ratios (HEK293 FlpIn T-Rex cells; replicate 2): 0.9043
- raw tau:tubulin ratios (HEK293 FlpIn T-Rex cells; replicate 3): 0.9582
